Reference: the supplement of paper PMC10307832

Tests used:
Assay in all cases: relative viability (nuclei count vs DMSO), 5 days (fraction); higher = more cells survive
AZD8055 + Phenformin = compound: COc1ccc(-c2ccc3c(N4CCOC[C@@H]4C)nc(N4CCOC[C@@H]4C)nc3n2)cc1CO [AZD8055] + N=C(N)NC(=N)NCCc1ccccc1 [Phenformin] (partner 250 µM)
Outline: (§1)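 Lung cancer cell lines in 1536-well plates were dosed by pin tool the day after seeding, either with one drug alone or with a fixed anchor-drug dose plus five library-drug doses (not always all listed) in √10 steps. After 5 days, cells were fixed and their nuclei stained in one step (final 0.05% Triton X-100, 1% formaldehyde, 1 ug/ml Hoechst), then counted on 4× images. Relative viability is the nuclei count in treated wells divided by that in vehicle wells. Values are medians of duplicate plates.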

AZD8055 + Trametinib = compound: COc1ccc(-c2ccc3c(N4CCOC[C@@H]4C)nc(N4CCOC[C@@H]4C)nc3n2)cc1CO [AZD8055] + CC(=O)Nc1cccc(-n2c(=O)n(C3CC3)c(=O)c3c(Nc4ccc(I)cc4F)n(C)c(=O)c(C)c32)c1 [Trametinib] (partner 0.02 µM)
Outline: as §1

AZD8055 + OSI-027 = compound: COc1ccc(-c2ccc3c(N4CCOC[C@@H]4C)nc(N4CCOC[C@@H]4C)nc3n2)cc1CO [AZD8055] + COc1cccc2cc(-c3nc([C@H]4CC[C@H](C(=O)O)CC4)n4ncnc(N)c34)[nH]c12 [OSI-027] (partner 0.5 µM)
Outline: as §1

AZD8055 = compound: COc1ccc(-c2ccc3c(N4CCOC[C@@H]4C)nc(N4CCOC[C@@H]4C)nc3n2)cc1CO [AZD8055]
Outline: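 Lung cancer cell lines in 1536-well plates were exposed by pinning to five library-drug doses (not always all listed) √10 apart, following an overnight hold at 37 °C. MetaXpress counted Hoechst-stained nuclei from 4× images taken after 5 days without medium change. Viability is the median ratio of treated-well to vehicle-well nuclei across plates. Plates required control CV below 25% and at least one doubling.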

Cell Line	relative viability (AZD8055 + Phenformin; first compound 0.01 µM)	relative viability (AZD8055 + Phenformin; first compound 0.03162 µM)	relative viability (AZD8055 + Phenformin; first compound 0.1 µM)	relative viability (AZD8055 + Phenformin; first compound 0.3162 µM)	relative viability (AZD8055 + Phenformin; first compound 1 µM)	relative viability (AZD8055 + Trametinib; first compound 0.01 µM)	relative viability (AZD8055 + Trametinib; first compound 0.03162 µM)	relative viability (AZD8055 + Trametinib; first compound 0.1 µM)	relative viability (AZD8055 + Trametinib; first compound 0.3162 µM)	relative viability (AZD8055 + Trametinib; first compound 1 µM)	relative viability (AZD8055 + OSI-027; first compound 0.01 µM)	relative viability (AZD8055 + OSI-027; first compound 0.03162 µM)	relative viability (AZD8055 + OSI-027; first compound 0.1 µM)	relative viability (AZD8055 + OSI-027; first compound 0.3162 µM)	relative viability (AZD8055 + OSI-027; first compound 1 µM)	relative viability (AZD8055; 0.01 µM)	relative viability (AZD8055; 0.03162 µM)	relative viability (AZD8055; 0.1 µM)	relative viability (AZD8055; 0.3162 µM)	relative viability (AZD8055; 1 µM)
NCI-H441	0.767	0.574	0.628	0.27	0.343	0.432	0.452	0.282	0.229	0.201	0.676	0.647	0.476	0.408	0.339	1.06	0.929	0.695	0.427	0.387
NCI-H460	0.609	0.474	0.124	0.049	0.034	0.144	0.129	0.0855	0.0696	0.0537	0.85	0.47	0.506	0.141	0.124	1.13	0.995	0.798	0.416	0.264
NCI-H520	0.467	0.219	0.211	0.158	0.156	0.581	0.246	0.267	0.109	0.137	0.236	0.254	0.188	0.184	0.16	0.904	0.441	0.373	0.19	0.178
NCI-H522	0.69	0.624	0.669	0.48	0.56	0.747	0.648	0.574	0.494	0.462	0.698	0.757	0.803	0.67	0.632	0.965	1	0.723	0.519	0.719
NCI-H596	0.777	0.685	0.608	0.407	0.375	0.704	0.676	0.577	0.411	0.404	0.685	0.731	0.582	0.413	0.315	0.953	0.762	0.683	0.469	0.406
NCI-H647	0.564	0.412	0.331	0.14	0.15	0.538	0.345	0.322	0.136	0.127	0.514	0.624	0.568	0.315	0.193	0.981	0.717	0.51	0.332	0.204
NCI-H650	0.473	0.378	0.429	0.305	0.302	1.13	1.09	0.888	0.469	0.353	0.528	0.492	0.602	0.368	0.344	0.984	0.809	0.738	0.427	0.303
NCI-H661	0.245	0.262	0.287	0.248	0.261	0.518	0.426	0.451	0.31	0.325	0.782	0.668	0.575	0.41	0.341	1.03	0.992	0.842	0.521	0.537
NCI-H727	0.542	0.38	0.584	0.33	0.327	0.352	0.399	0.368	0.37	0.458	0.674	0.604	0.49	0.351	0.409	1.17	0.953	0.695	0.544	0.412
NCI-H838	0.553	0.362	0.354	0.233	0.218	0.499	0.335	0.279	0.19	0.201	0.377	0.404	0.383	0.262	0.31	1.05	0.676	0.442	0.322	0.339
NCI-H1355	0.442	0.396	0.344	0.286	0.28	0.379	0.321	0.29	0.211	0.211	0.393	0.414	0.372	0.314	0.273	0.889	0.865	0.578	0.303	0.261
NCI-H1395	0.447	0.396	0.333	0.394	0.374	0.977	0.793	0.712	0.514	0.544	0.657	0.618	0.535	0.443	0.422	0.869	0.648	0.739	0.488	0.427
NCI-H1437	0.315	0.299	0.301	0.206	0.203	0.524	0.527	0.381	0.247	0.207	0.973	0.88	0.753	0.354	0.389	1.05	1.02	0.895	0.448	0.318
NCI-H1650	0.534	0.518	0.383	0.288	0.266	0.724	0.544	0.502	0.394	0.261	0.678	0.776	0.484	0.435	0.39	0.923	1	0.802	0.498	0.419
NCI-H1651	0.323	0.318	0.329	0.261	0.232	0.809	0.715	0.735	0.582	0.462	0.871	0.682	0.603	0.32	0.413	1.08	0.847	0.871	0.61	0.389
NCI-H1666	0.619	0.553	0.584	0.542	0.488	0.887	0.877	0.877	0.797	0.793	0.894	0.905	0.887	0.747	0.717	1.1	1.07	0.925	0.802	0.675

Cell Line	relative viability (AZD8055 + Phenformin; first compound 0.01 µM)	relative viability (AZD8055 + Phenformin; first compound 0.03162 µM)	relative viability (AZD8055 + Phenformin; first compound 0.1 µM)	relative viability (AZD8055 + Phenformin; first compound 0.3162 µM)	relative viability (AZD8055 + Phenformin; first compound 1 µM)	relative viability (AZD8055 + Trametinib; first compound 0.01 µM)	relative viability (AZD8055 + Trametinib; first compound 0.03162 µM)	relative viability (AZD8055 + Trametinib; first compound 0.1 µM)	relative viability (AZD8055 + Trametinib; first compound 0.3162 µM)	relative viability (AZD8055 + Trametinib; first compound 1 µM)	relative viability (AZD8055 + OSI-027; first compound 0.01 µM)	relative viability (AZD8055 + OSI-027; first compound 0.03162 µM)	relative viability (AZD8055 + OSI-027; first compound 0.1 µM)	relative viability (AZD8055 + OSI-027; first compound 0.3162 µM)	relative viability (AZD8055 + OSI-027; first compound 1 µM)	relative viability (AZD8055; 0.01 µM)	relative viability (AZD8055; 0.03162 µM)	relative viability (AZD8055; 0.1 µM)	relative viability (AZD8055; 0.3162 µM)	relative viability (AZD8055; 1 µM)
NCI-H1734	0.417	0.288	0.264	0.176	0.194	0.747	0.559	0.531	0.312	0.242	0.665	0.553	0.493	0.319	0.225	1.08	0.732	0.646	0.385	0.276
NCI-H1755	0.609	0.594	0.541	0.463	0.474	0.729	0.673	0.615	0.404	0.385	0.752	0.698	0.649	0.544	0.537	1.02	0.841	0.825	0.537	0.569
NCI-H1792	0.193	0.193	0.0875	0.0907	0.109	0.511	0.273	0.227	0.0933	0.0673	0.799	0.674	0.574	0.431	0.26	0.951	0.612	0.325	0.171	0.216
NCI-H1793	0.405	0.272	0.196	0.203	0.207	0.449	0.274	0.279	0.183	0.22	0.291	0.215	0.196	0.18	0.202	0.669	0.443	0.287	0.212	0.222
NCI-H1915	0.373	0.348	0.356	0.364	0.302	0.286	0.254	0.259	0.174	0.146	0.664	0.551	0.656	0.547	0.459	1.01	0.81	0.959	0.63	0.513
NCI-H1944	0.193	0.2	0.187	0.148	0.129	0.411	0.378	0.292	0.228	0.191	0.418	0.454	0.378	0.297	0.24	1.01	0.786	0.673	0.335	0.316
NCI-H1975	0.369	0.309	0.233	0.172	0.174	0.417	0.313	0.193	0.192	0.18	0.677	0.56	0.375	0.237	0.235	1.05	0.812	0.55	0.347	0.283
NCI-H1993	0.509	0.469	0.529	0.49	0.576	0.493	0.443	0.517	0.449	0.413	0.545	0.502	0.625	0.353	0.568	0.791	0.72	0.577	0.545	0.666
NCI-H2009	0.508	0.455	0.486	0.294	0.228	0.249	0.248	0.205	0.14	0.141	0.72	0.562	0.641	0.338	0.292	1.03	0.918	0.924	0.501	0.344
NCI-H2023	0.463	0.326	0.293	0.138	0.13	0.454	0.43	0.187	0.152	0.122	0.445	0.347	0.266	0.13	0.116	0.901	0.618	0.362	0.163	0.153
NCI-H2085	0.739	0.67	0.417	0.34	0.314	0.535	0.326	0.282	0.246	0.295	0.744	0.852	0.551	0.34	0.355	1	0.987	0.723	0.43	0.42
NCI-H2087	0.555	0.41	0.422	0.242	0.232	0.248	0.166	0.169	0.153	0.116	0.77	0.606	0.577	0.412	0.311	1.14	0.908	0.936	0.458	0.349
NCI-H2126	0.488	0.503	0.438	0.349	0.379	0.544	0.469	0.424	0.294	0.359	0.762	0.743	0.717	0.528	0.449	0.973	0.926	0.743	0.515	0.418
NCI-H2170	0.438	0.437	0.471	0.407	0.341	0.957	0.864	0.614	0.222	0.159	0.665	0.701	0.624	0.386	0.392	1.01	0.881	0.735	0.365	0.345
NCI-H2228	0.307	0.205	0.188	0.133	0.212	0.507	0.314	0.211	0.159	0.199	0.548	0.446	0.281	0.176	0.234	1.29	0.757	0.378	0.201	0.213
